Several values for one entry are separate records, joined by “and”; a condition that tells them apart may be missing. Equal values may be shown once. Ends that are not written are not given here.

Experiment [1] relates to Salmonella enterica serovar Typhimurium UK1. The experiment is described as follows: Broth MIC, Gram negative. The class given is cell-based. Conditions: cells washed in 10 mM SPB pH 7.4, 2×10^5 CFU/mL, 2 h RT with peptide, then double strength LB, RT overnight, mean of triplicate assays. The protocol:
(§1) Minimum inhibitory concentration determinations for Gram negative strains were carried out in triplicate in 96 well microtitre plates. Briefly, bacteria (E. coli, C. sakazakii and Salmonella) grown to mid-logarithmic phase were harvested by centrifugation, washed with 10 mM SPB at pH 7.4, and diluted to 2×10^5 colony-forming units (CFU)/mL in SPB. Nisin and nisin derivative peptides were resuspended in sterile HPLC water and 50 µL aliquots were added to wells containing 50 µL of 2×10^5 CFU of bacteria. Plates were incubated at RT for two hours with agitation. Double strength Luria–Bertani (LB) broth (100 µL) was added and the plates were incubated at RT overnight, the MIC was taken as the lowest concentration at which growth was inhibited.

Experiment [2] relates to E. coli 0157-H7. Briefly: Broth MIC, Gram negative. The class given is cell-based. The settings on record: cells washed in 10 mM SPB pH 7.4, 2×10^5 CFU/mL, 2 h RT with peptide, then double strength LB, RT overnight, mean of triplicate assays. The protocol: as §1
For experiment [3], the system named is B. cereus DPC 6089. Briefly: Broth MIC, Gram positive. The class given is cell-based, Bacillus cereus. The settings on record: broth microtitre, BSA pre-treated plates, 10^5 cfu ml^−1, 2-fold dilutions from 10 µM, 16 h 37°C, purified peptide, mean of triplicate assays. The protocol: (§2) Minimum inhibitory concentration determinations for Gram positive organisms were carried out in triplicate in microtitre plates (Sarstedt). 96 well microtitre plates were pre-treated with bovine serum albumin (BSA) prior to addition of the peptides. Briefly, to each well of the microtitre plate 200 µL of phosphate buffered saline (PBS) containing 1% (w/v) bovine serum albumin (PBS/BSA) was added and incubated at 37°C for 30 min. The wells were washed with 200 µL PBS and allowed to dry. Target strains were grown overnight in the appropriate conditions and medium, subcultured into fresh broth and allowed to grow to an OD600 of ∼0.5, diluted to a final concentration of 10^5 cfu ml^−1 in a volume of 0.2 ml. Wild type nisin and nisin mutant peptides were adjusted to a 10 µM (S. mitis, B. cereus), 7.5 µM (L. monocytogenes), 5 µM (hVISA) 2.5 µM (MRSA, E. durans), or 500 nM (L. lactis strains) starting concentration and 2-fold serial dilutions of each peptide were added to the target strain.

Experiment [4] concerns B. cereus DPC 6088. Briefly: Broth MIC, Gram positive. The format is cell-based, Bacillus cereus. The settings on record: broth microtitre, BSA pre-treated plates, 10^5 cfu ml^−1, 2-fold dilutions from 10 µM, 16 h 37°C, purified peptide, mean of triplicate assays. As to the method: as §2
Experiment [5] relates to E. durans 5133. The experiment is described as follows: Broth MIC, Gram positive. The class given is cell-based, Enterococcus durans. Conditions: broth microtitre, BSA pre-treated plates, 10^5 cfu ml^−1, 2-fold dilutions from 2.5 µM, 16 h 37°C, purified peptide, mean of triplicate assays. The protocol:
as §2

The subject of experiment [6] is C. sakazakii DPC 6440. Briefly: Broth MIC, Gram negative. The class given is cell-based, Cronobacter sakazakii. Conditions: cells washed in 10 mM SPB pH 7.4, 2×10^5 CFU/mL, 2 h RT with peptide, then double strength LB, RT overnight, mean of triplicate assays. As to the method:
as §1

The subject of experiment [7] is S. mitis UCC5000. Briefly: Broth MIC, Gram positive. Conditions: broth microtitre, BSA pre-treated plates, 10^5 cfu ml^−1, 2-fold dilutions from 10 µM, 16 h 37°C, purified peptide, mean of triplicate assays. The class given is cell-based, Streptococcus mitis. As to the method: as §2
Experiment [8] deals with L. lactis HP. Briefly: Broth MIC, Gram positive. The format is cell-based. Conditions: broth microtitre, BSA pre-treated plates, 10^5 cfu ml^−1, 2-fold dilutions from 500 nM, 16 h, purified peptide, mean of triplicate assays. The protocol:
as §2

The test system of experiment [9] is S. aureus RF122. The experiment is described as follows: Broth MIC, Gram positive. The class given is cell-based. The settings on record: broth microtitre, BSA pre-treated plates, 10^5 cfu ml^−1, 2-fold dilutions, 16 h 37°C, purified peptide, mean of triplicate assays. The protocol: as §2
For experiment [10], the system named is C. sakazakii DPC 6440. The experiment is described as follows: Agarose gel diffusion assay, purified peptide. The format is cell-based, Cronobacter sakazakii. The settings on record: purified peptide 60 µM; for Zone of inhibition, agarose gel diffusion: C. sakazakii DPC 6440, mean of triplicate assays; for Zone as % wt: C. sakazakii DPC 6440, relative to nisin A. As to the method: (§3) Agarose-based deferred antagonism assays were carried out as follows: GM17/LB (0.03%) underlay was prepared with 10 mM sodium phosphate buffer (SPB) at pH 7.4 to which was added agarose (1% w/v agarose), autoclaved and cooled to 50°C. Bacteria grown to mid-logarithmic phase were harvested by centrifugation and washed with 10 mM SPB at pH 7.4. Bacteria were then added to 15 mls cooled underlay medium to reach a concentration of 2×10^7 colony-forming units (CFU)/mL. The inoculated medium was rapidly transferred into sterile Petri plates, allowed to solidify and dried. Wells (4.6 mm in diameter) were then made in the seeded plates. 10 µl volumes of cell-free supernatant from overnight nisin derivative producing cultures or resuspended purified peptides were then added to the wells and the plates incubated at 30°C (L. lactis) or 37°C (Gram positive strains) or RT (Gram negative strains) for 3 hours. Polymyxin B (Sigma Aldrich) was used at a concentration of 20 µg/ml. The plates were then overlaid with 15 mls of autoclaved double strength GM17 (L. lactis) or LB (Gram negatives) agarose (1% w/v agarose) overlay medium precooled to 50°C. The plates were then incubated overnight at the relevant temperature.

Experiment [11] concerns Salmonella enterica serovar Typhimurium UK1. Briefly: Agarose gel diffusion assay, purified peptide. The class given is cell-based. Conditions: purified peptide 60 µM; for Zone of inhibition, agarose gel diffusion: Salmonella Typhimurium UK1, mean of triplicate assays; for Zone as % wt: Salmonella Typhimurium UK1, relative to nisin A. As to the method:
as §3

For experiment [12], the system named is E. coli 0157-H7. The experiment is described as follows: Agarose gel diffusion assay, purified peptide. The format is cell-based. Conditions: purified peptide 60 µM; for Zone of inhibition, agarose gel diffusion: E. coli 0157-H7, mean of triplicate assays; for Zone as % wt: E. coli 0157-H7, relative to nisin A. As to the method: as §3
The subject of experiment [13] is L. lactis MG1363. Briefly: Broth MIC, Gram positive. The settings on record: broth microtitre, BSA pre-treated plates, 10^5 cfu ml^−1, 2-fold dilutions from 500 nM, 16 h, purified peptide, mean of triplicate assays. The class given is cell-based. The protocol:
as §2

Experiment [14] relates to ST 528 (Methicillin resistant S. aureus). Briefly: Broth MIC, Gram positive. The settings on record: broth microtitre, BSA pre-treated plates, 10^5 cfu ml^−1, 2-fold dilutions from 2.5 µM, 16 h 37°C, purified peptide, mean of triplicate assays. The class given is cell-based. The protocol:
as §2

The test system of experiment [15] is L. monocytogenes LO28. The experiment is described as follows: Broth MIC, Gram positive. The class given is cell-based. The settings on record: broth microtitre, BSA pre-treated plates, 10^5 cfu ml^−1, 2-fold dilutions from 7.5 µM, 16 h 37°C, purified peptide, mean of triplicate assays. As to the method: as §2
The subject of experiment [16] is L. monocytogenes 10403S. Briefly: Broth MIC, Gram positive. The format is cell-based. Conditions: broth microtitre, BSA pre-treated plates, 10^5 cfu ml^−1, 2-fold dilutions from 7.5 µM, 16 h 37°C, purified peptide, mean of triplicate assays. As to the method: as §2
Experiment [17] deals with hVISA 32679 (heterogenous Vancomycin-intermediate S. aureus). Briefly: Broth MIC, Gram positive. The class given is cell-based. The settings on record: broth microtitre, BSA pre-treated plates, 10^5 cfu ml^−1, 2-fold dilutions from 5 µM, 16 h 37°C, purified peptide, mean of triplicate assays. As to the method:
as §2

Experiment [18] deals with ST 530 (Methicillin resistant S. aureus). Briefly: Broth MIC, Gram positive. The settings on record: broth microtitre, BSA pre-treated plates, 10^5 cfu ml^−1, 2-fold dilutions from 2.5 µM, 16 h 37°C, purified peptide, mean of triplicate assays. The format is cell-based. The protocol:
as §2

Experiment [19] concerns Lactococcus lactis HP. The experiment is described as follows: Agarose-based assay of cell-free supernatants of S29X producing strains. Conditions: for Zone Diameter (mm): agarose (1%) GM17 assay, 10 µl cell-free supernatant of overnight producing culture in 4.6 mm wells, L. lactis HP, 30°C; for % difference (zone relative to wild type): agarose assay of supernatants against L. lactis HP, wild type serine = 100. The protocol:
as §3

With “M21K: M21K hinge derivative of nisin A, generated and purified for comparison (ITSISLCTPGCKTGALMGCNKKTATCHCSIHVSK; thioether (positions not given here); not fully specified (residues 2, 5, 33, bridges); UniProt P13068 24-57, looked up, variant M21K)”, the MIC (as a rule, the smallest concentration in the dilution series that meets the test's criterion for growth inhibition) in experiment [1] is 50.28 mg/L and 15 µM; in experiment [2] it was 25.14 mg/L and 7.5 µM; in experiment [3] it was 16.76 mg/L and 5.0 µM; in experiment [4] it was 16.76 mg/L and 5.0 µM; in [5], 0.52 mg/L and 0.156 µM; in experiment [6], 6.28 mg/L and 1.875 µM. The MIC in experiment [7] is 8.38 mg/L and 2.5 µM; in experiment [8], 0.2 mg/L and 0.062 µM; in experiment [9], 1.04 mg/L and 0.312 µM. For the same substance, the “Zone of inhibition, agarose gel diffusion” value (shortened to “Zone of inhibition”) in experiment [10] was found to be 10.51±0.10 mm; in [11], 10.75±0.12 mm; in [12], 10.80±0.01 mm. For the same substance, the “Zone as % wt” value was found to be 108 % wt in [10], 109 % wt in [11] and 110 % wt in [12].

For “S29E: bioengineered nisin A derivative, serine 29 replaced by glutamic acid (ITSISLCTPGCKTGALMGCNMKTATCHCEIHVSK; not fully specified (residues 2, 5, 33, bridges); cysteine pairing not given here; UniProt P13068 24-57, looked up, variant S29E)”, the MIC in [1] was 50.28 mg/L and 15 µM; in experiment [2], 25.14 mg/L and 7.5 µM; in experiment [3], 4.19 mg/L and 1.25 µM; in experiment [4] it was 4.19 mg/L and 1.25 µM; in [5], 0.52 mg/L and 0.156 µM; in experiment [6], 12.57 mg/L and 3.75 µM. For the same substance, the MIC was 4.19 mg/L in [7]; 0.8 mg/L and 0.250 µM in experiment [13]; 0.52 mg/L in experiment [14]; 6.28 mg/L and 1.875 µM in [15]; 12.57 mg/L and 3.75 µM in [16]; 0.05 mg/L and 0.015 µM in experiment [8]. Moreover, the MIC in [17] is 4.19 mg/L and 1.25 µM; in experiment [18], 0.52 mg/L; in experiment [9], 2 mg/L and 0.625 µM. Besides, the “Zone of inhibition” value stood at 7.98±0.29 mm in experiment [10], 10.77±0.07 mm in [11] and 10.54±0.19 mm in experiment [12]. The “Zone as % wt” value was 81 % wt in [10], 109 % wt in experiment [11] and 107 % wt in [12]. In addition, the “Zone Diameter (mm)” value in [19] was determined as 18.6±0.3 mm. The “% difference (zone relative to wild type)” value in experiment [19] is reported as 122 (0.0004) %.

As for “S29D: bioengineered nisin A derivative, serine 29 replaced by aspartic acid (ITSISLCTPGCKTGALMGCNMKTATCHCDIHVSK; thioether (positions not given here); not fully specified (residues 2, 5, 33, bridges); UniProt P13068 24-57, looked up, variant S29D)”, the MIC in experiment [1] was > 100 mg/L and > 30 µM; in [2], > 100 mg/L and > 30 µM; in experiment [3], 8.38 mg/L and 2.5 µM; in [4], 16.76 mg/L and 5.0 µM; in [5], 0.52 mg/L and 0.156 µM; in experiment [6], 6.28 mg/L and 1.875 µM. The MIC in [7] is 16.76 mg/L and 5.0 µM; in experiment [13] it was 0.4 mg/L and 0.125 µM; in [14], 0.26 mg/L and 0.078 µM; in experiment [15], 12.57 mg/L and 3.75 µM; in experiment [16] it was 12.57 mg/L and 3.75 µM; in [8] it was 0.05 mg/L and 0.015 µM. Moreover, the MIC was 4.19 mg/L and 1.25 µM in experiment [17]; 0.52 mg/L and 0.156 µM in experiment [18]; 4.19 mg/L and 1.25 µM in experiment [9]. For the same substance, the “Zone of inhibition” value in experiment [10] is given as 10.10±0.19 mm; in experiment [11], 8.22±0.16 mm; in experiment [12], 8.27±0.08 mm. Further, the “Zone as % wt” value worked out at 103 % wt in [10], 83 % wt in experiment [11] and 84 % wt in [12]. The “Zone Diameter (mm)” value in [19] was 20.3±0.8 mm. The “% difference (zone relative to wild type)” value in experiment [19] is listed as 133 (0.006) %.

(Values after PMC3466204 (PLoS ONE, 2012).)
